Data on 6 molecules can be found in article PMC10261104, “Regioselective stilbene O-methylations in Saccharinae grasses” (Nature Communications, 2023).

The target of test [1] is T1, SbCOMT (caffeic acid O-methyltransferase) (Sorghum bicolor, UniProt C5YH12).
T1 construct: gene SORBI_3007G047300; residues 2–362
T1 sequence (C5YH12 2-362): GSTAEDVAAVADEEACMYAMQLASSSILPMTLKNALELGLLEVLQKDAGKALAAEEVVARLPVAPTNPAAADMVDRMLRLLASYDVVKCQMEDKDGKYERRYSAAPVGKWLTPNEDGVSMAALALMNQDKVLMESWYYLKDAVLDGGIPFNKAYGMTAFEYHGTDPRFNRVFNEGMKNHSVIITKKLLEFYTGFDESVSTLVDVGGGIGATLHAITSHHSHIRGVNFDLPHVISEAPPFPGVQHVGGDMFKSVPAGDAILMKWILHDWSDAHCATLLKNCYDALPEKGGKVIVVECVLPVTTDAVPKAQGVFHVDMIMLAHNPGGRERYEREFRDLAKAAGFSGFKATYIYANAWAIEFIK
Kind of test: ITC; […]ʹ-O-methylation enzyme assay. Type of test: binding.

Test [2] addresses Sorghum bicolor stilbene O-methyltransferase (SbSOMT) (Sorghum bicolor). Kind of test: crystal structure; SbSOMT co-crystallised with resveratrol, pinostilbene or pterostilbene, with or without β-NAD; sitting drop vapor diffusion, 18 °C.
Test [3] deals with T2, SbSOMT (stilbene O-methyltransferase) (Sorghum bicolor, UniProt A0A1B6PFV1).
T2 construct: gene SORBI_3007G059100; residues 2–377
In words: ITC. Type of test: binding.

The target of test [4] is T1, SbCOMT (caffeic acid O-methyltransferase). Kind of test: ITC. The format is binding.
Test [5] deals with T2, SbSOMT (stilbene O-methyltransferase). Kind of test: ITC; X-ray crystal structures (binary, and ternary with β-NAD at […] Å); methylation assay. Type of test: binding.
Test [6] has the same target. Kind of test: ITC; X-ray crystal structure ([…] Å, ternary complex). Type of test: binding.
Test [7] deals with T1, SbCOMT (caffeic acid O-methyltransferase). In words: ITC; enzyme kinetics (Km […]). Type of test: binding.
Test [8] has as its target T2, SbSOMT (stilbene O-methyltransferase). In words: ITC; X-ray crystal structure ([…] Å, ternary complex); enzyme kinetics (Km […]). Type of test: binding.

T2 sequence (A0A1B6PFV1 2-377): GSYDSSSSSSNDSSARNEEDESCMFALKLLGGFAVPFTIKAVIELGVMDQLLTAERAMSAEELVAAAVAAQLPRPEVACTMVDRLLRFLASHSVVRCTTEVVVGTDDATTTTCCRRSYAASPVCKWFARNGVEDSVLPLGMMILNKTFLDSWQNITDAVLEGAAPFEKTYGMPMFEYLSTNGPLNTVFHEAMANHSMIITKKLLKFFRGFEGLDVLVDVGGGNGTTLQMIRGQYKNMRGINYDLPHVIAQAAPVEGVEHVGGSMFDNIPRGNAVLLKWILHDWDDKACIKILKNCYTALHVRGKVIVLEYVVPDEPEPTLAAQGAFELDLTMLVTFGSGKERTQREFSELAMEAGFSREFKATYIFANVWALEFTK

For `Oc1cc(O)cc(/C=C/c2ccc(O)c(O)c2)c1` [piceatannol], the Kd in test [1] came to 1.26 µM.

As for “Sorghum bicolor stilbene O-methyltransferase (SbSOMT) (enzyme)”, the stoichiometry N in test [2] worked out at 2.

Turning to `C[S+](CC[C@H](N)C(=O)[O-])C[C@H]1O[C@@H](n2cnc3c(N)ncnc32)[C@H](O)[C@@H]1O` (stereo partly shown) [SAM], the Kd turned out to be 90 µM in test [3] and 13 µM in test [4] (read-out: SbCOMT).

For `Oc1ccc(/C=C/c2cc(O)cc(O)c2)cc1` [resveratrol], the results for the Kd in test [5] and in test [4] were 4.69 µM and 1.55 µM, respectively.

Take `COc1cc(/C=C/c2ccc(O)cc2)cc(OC)c1` [pterostilbene]: the Kd stood at 11.2 µM in test [6] and 3.99 µM in test [4] (read-out: SbCOMT).

For the molecule `COc1cc(O)cc(/C=C/c2ccc(O)cc2)c1` [pinostilbene], the Kd in test [7] was 1.79 µM; in test [8], 2.86 µM.
